How the values were obtained:
CK2α = biological target: T1, CK2α (Homo sapiens, UniProt P68400); test: Biochemical assay for inhibitors of CK2α kinase activity (ADP-Glo); conditions: 0.2 nM CK2α, 50 μM peptide substrate, 15 μM ATP, read-out: Assay 1: CK2α Enzyme IC50
T1 construct: CK2α (residues 2-329) was produced in Escherichia coli BL21 (DE3) for kinase activity screening; His6 (N, cleaved yes); made in house; host or cells: Escherichia coli BL21 (DE3)
T1 sequence (P68400 2-329): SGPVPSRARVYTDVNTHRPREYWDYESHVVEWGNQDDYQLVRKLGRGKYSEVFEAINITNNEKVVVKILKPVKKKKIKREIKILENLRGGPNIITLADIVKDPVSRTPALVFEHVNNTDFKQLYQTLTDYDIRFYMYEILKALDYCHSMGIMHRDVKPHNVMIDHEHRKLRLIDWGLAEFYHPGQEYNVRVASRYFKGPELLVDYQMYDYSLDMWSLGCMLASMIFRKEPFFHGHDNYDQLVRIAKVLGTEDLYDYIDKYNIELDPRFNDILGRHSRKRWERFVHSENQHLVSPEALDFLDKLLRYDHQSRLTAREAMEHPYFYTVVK
Experimental: The inhibitory activity of putative kinase inhibitors and the potency of selected compounds were determined using ADP-Glo™ assay. The kinase reaction was performed in the presence of excess peptide substrate and ATP at a concentration equivalent to Km. Upon termination of the kinase reaction, remaining ATP was depleted leaving only ADP reaction product, which was converted back to ATP with a coupled luciferin/luciferase reaction. The luminescent output from the coupled reaction was quantified and correlated with the kinase activity. […] Single colonies of the cells were grown in 6×1 L of 2×TY with 100 μg/mL ampicillin at 37° C. […] The cells were incubated overnight at 25° C. then harvested by centrifugation at 4,000 g for 20 minutes. The cell pellets were suspended in 20 mM Tris, 500 mM NaCl, pH 8.0 and lysed using a high pressure homogenizer. Protease inhibitor cocktail tablets (one tablet per 50 mL extract; Roche Diagnostics) and DNase I were then added. The crude cell extract was then centrifuged at 10,000 g for 45 minutes, the supernatant was filtered with a 0.22 μm filter. The soluble supernatant was applied on a Ni Sepharose Fast Flow6 column at pH 8.0, washed and eluted in 20 mM Tris pH 8.0, 500 mM NaCl, 200 mM imidazole. […] The cleaved protein was further purified on a Sepharose Q HP anion-exchange column and the main peak fraction from this column was further purified by gel filtration on a Superdex 75 16/60 HiPrep column equilibrated with Tris 20 mM, pH 8.0, 500 mM NaCl. Pure protein was concentrated to 15 mg/mL and flash frozen in liquid nitrogen. […] The assay was conducted as follows: • 1. […] After 120 minutes, the reaction was stopped by addition of 5 pl ADP-Glo reagent (Promega V9102) and the plate incubated at RT for a further 60 minutes. • 5. 10 μL of Kinase Detection reagent (Promega V9102) was added to assay plate and incubated for a further 30 minutes prior to reading luminescence on an Envision (Perkin-Elmer). Data was analysed to calculate compound IC50and Ki as follows: • 1. […] Percent activity was calculated for each well using: (Test well reading−MEAN100%inhibition control wells)/(MEAN0% inhibition control wells−MEAN100%inhibition control wells). • 5. Morrison Ki was determined using Morrison Ki equation (XL-fit).

CLK2 = biological target: T2, CLK2 (Homo sapiens, UniProt P49760); test: Biochemical assay for inhibitors of CLK2 kinase activity (ADP-Glo); conditions: 20 nM CLK2, 50 μM peptide substrate, 100 μM ATP, read-out: Assay 2: CLK2 Enzyme IC50
T2 construct: purchased Carna Biosciences 04-127
Experimental: The inhibitory activity of putative kinase inhibitors and the potency of selected compounds were determined using ADP-GloTM assay. The kinase reaction was performed in the presence of excess peptide substrate and ATP at a concentration equivalent to Km. Upon termination of the kinase reaction, remaining ATP was depleted leaving only ADP reaction product, which was converted back to ATP with a coupled luciferin/luciferase reaction. The luminescent output from the coupled reaction was quantified and correlated with the kinase activity. […] The assay was conducted as follows: • 1. […] After 120 minutes, the reaction was stopped by addition of 5 pl ADP-Glo reagent (Promega V9102) and the plate incubated at RT for a further 60 minutes. • 5. 10 μL of Kinase Detection reagent (Promega V9102) was added to assay plate and incubated for a further 30 minutes prior to reading luminescence on an Envision (Perkin-Elmer). Data was analysed to calculate compound IC50and Ki as follows: • 1. […] Morrison Ki was determined using Morrison Ki equation (XL-fit).

intracellular CK2α = biological target: T3, intracellular CK2α (Homo sapiens, UniProt P19784); test: Cell-based NanoBRET assay for inhibitor binding to intracellular CK2α; conditions: HCT116 cells transiently transfected with CSNK2A2-NanoLuc fusion vector; Tracer K-5; 2 h; read-out: Assay 3: NanoBRET ™ assay for binding to intracellular CK2α
T3 construct: host or cells: HCT116 (ATCC CCL-247)
Experimental: This assay used the NanoBRET™ System (Promega), an energy transfer technique designed to measure molecular proximity in living cells. The assay measured the apparent affinity of test compounds by competitive displacement of a NanoBRET™ tracer reversibly bound to a NanoLucR luciferase CK2α fusion protein in cells. A fixed concentration of tracer was added to cells expressing the desired NanoLucR-CK2α fusion protein to generate a BRET reporter complex. […] Donor emission wavelength (450 nm) and acceptor emission wavelength (610 nm or 630 nm) were measured on the Envision (Perkin-Elmer) and BRET ratio calculated for data analysis: BRET Ratio=(Acceptorsample/Donorsample)×1,000. • 7.

T2 sequence (P49760 whole entry): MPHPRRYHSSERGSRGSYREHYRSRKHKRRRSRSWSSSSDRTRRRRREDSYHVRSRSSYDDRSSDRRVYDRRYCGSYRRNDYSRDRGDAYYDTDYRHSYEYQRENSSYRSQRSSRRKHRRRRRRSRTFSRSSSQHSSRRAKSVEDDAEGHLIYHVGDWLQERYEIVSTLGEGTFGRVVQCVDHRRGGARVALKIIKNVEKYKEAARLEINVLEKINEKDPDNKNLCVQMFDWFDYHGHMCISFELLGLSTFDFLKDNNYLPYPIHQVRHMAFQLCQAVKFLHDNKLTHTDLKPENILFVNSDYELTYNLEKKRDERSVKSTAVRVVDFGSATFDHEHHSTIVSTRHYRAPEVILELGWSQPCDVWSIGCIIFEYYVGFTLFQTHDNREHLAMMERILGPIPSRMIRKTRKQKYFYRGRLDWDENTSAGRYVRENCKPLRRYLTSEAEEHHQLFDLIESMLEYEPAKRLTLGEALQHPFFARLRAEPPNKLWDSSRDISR
T3 sequence (P19784 whole entry, the tested form may be a part): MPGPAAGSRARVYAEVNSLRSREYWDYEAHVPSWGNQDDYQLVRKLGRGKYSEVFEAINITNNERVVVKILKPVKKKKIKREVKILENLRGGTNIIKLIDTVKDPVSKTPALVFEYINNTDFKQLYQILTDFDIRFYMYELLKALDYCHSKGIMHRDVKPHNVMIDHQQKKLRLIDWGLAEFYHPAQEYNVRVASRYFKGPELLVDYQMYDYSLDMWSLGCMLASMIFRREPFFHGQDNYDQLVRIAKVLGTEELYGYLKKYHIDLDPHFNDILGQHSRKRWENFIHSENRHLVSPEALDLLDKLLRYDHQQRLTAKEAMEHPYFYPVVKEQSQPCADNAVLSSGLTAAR

| Compound | IC50 (CK2α) [nM] | IC50 (CLK2) [nM] | IC50 (intracellular CK2α) [nM] |
| --- | --- | --- | --- |
| CC(C)(C#N)c1cc(NCCOCCCCNCc2cc(CO)cc(OC(F)(F)F)c2)c2cn[nH]c2c1 [Example 206, 2-(4-((2-(4-((3-(hydroxymethyl)-5-(trifluoromethoxy)benzyl)amino)butoxy)ethyl)amino)-1H-indazol-6-yl)-2-methylpropanenitrile] | 63.9 | 2260 | 595 |
| FC(F)(F)Oc1ccc(CNCCCCOC2CN(c3cc(-c4ccnnc4)cc4[nH]nnc34)C2)cc1Cl [Example 150, N-(3-chloro-4-(trifluoromethoxy)benzyl)-4-((1-(6-(pyridazin-4-yl)-1H-benzo[d][1,2,3]triazol-4-yl)azetidin-3-yl)oxy)butan-1-amine] | 338 | 17700 | 39300 |
| Cc1c(-c2ccncc2)cc(NCCOCCCCNCc2cc(F)c(OC(F)(F)F)c(F)c2)c2cn[nH]c12 [Example 179, N-(2-(4-((3,5-difluoro-4-(trifluoromethoxy)benzyl)amino)butoxy)ethyl)-7-methyl-6-(pyridin-4-yl)-1H-indazol-4-amine] | 42.7 | 1930 | 1450 |
| FC(F)(F)c1ccc2[nH]c(CNCCCCOCCNc3cc(-c4cnoc4)cc4[nH]nnc34)cc2c1 [Example 143, 6-(isoxazol-4-yl)-N-(2-(4-(((5-(trifluoromethyl)-1H-indol-2-yl)methyl)amino)butoxy)ethyl)-1H-benzo[d][1,2,3]triazol-4-amine] | 7.01 | 625 | 564 |
| O=C(O)CCc1cc(NCCOCCCCNCc2cc(F)c(OC(F)(F)F)c(F)c2)c2cn[nH]c2c1 [Example 201, 3-(4-((2-(4-((3,5-difluoro-4-(trifluoromethoxy)benzyl)amino)butoxy)ethyl)amino)-1H-indazol-6-yl)propanoic acid] | 0.87 | 7830 | 142 |
| N#CCc1cc(Cl)cc(CNCCCCOC2CN(c3cc(-c4cnoc4)cc4[nH]ncc34)C2)c1 [Example 122, 2-(3-chloro-5-(((4-((1-(6-(isoxazol-4-yl)-1H-indazol-4-yl)azetidin-3-yl)oxy)butyl)amino)methyl)phenyl)acetonitrile] | 29.8 | 106 | 840 |
| O=C(Cc1cnc(CCNCc2ccc(OC(F)(F)F)c(Cl)c2)o1)Nc1cc(-n2cnnc2)cc2[nH]ncc12 [Example 15, N-(6-(4H-1,2,4-triazol-4-yl)-1H-indazol-4-yl)-2-(2-(2-((3-chloro-4-(trifluoromethoxy)benzyl)amino)ethyl)oxazol-5-yl)acetamide] | 27.1 | 1830 | > 50000 |
| N#CCc1cc(CNCCCCOC2CN(c3cc(-c4cnoc4)cc4[nH]ncc34)C2)cc(OC(F)(F)F)c1 [Example 146, 2-(3-(((4-((1-(6-(isoxazol-4-yl)-1H-indazol-4-yl)azetidin-3-yl)oxy)butyl)amino)methyl)-5-(trifluoromethoxy)phenyl)acetonitrile] | 8.18 | 152 | 299 |
| Fc1cc(CNCCCCOCCNc2c(Cl)c(-n3cnnc3)cc3[nH]ncc23)cc(F)c1OC(F)(F)F [Example 186, 5-chloro-N-(2-(4-((3,5-difluoro-4-(trifluoromethoxy)benzyl)amino)butoxy)ethyl)-6-(4H-1,2,4-triazol-4-yl)-1H-indazol-4-amine] | 717 | 4750 | > 48900 |

More lines, now with the values ahead:

| IC50 (CK2α) [nM] | IC50 (CLK2) [nM] | IC50 (intracellular CK2α) [nM] | Compound |
| --- | --- | --- | --- |
| 6.94 | 83.8 | > 50000 | O=C(CCNCc1cccc(OCCO)c1)NCCCNc1cc(-n2cnnc2)cc2[nH]ncc12 [Example 42, N-(3-((6-(4H-1,2,4-triazol-4-yl)-1H-indazol-4-yl)amino)propyl)-3-((3-(2-hydroxyethoxy)benzyl)amino)propanamide] |
| 6.96 | 132 | 449 | N#Cc1cc(NCCCNC(=O)CCNCc2ccc(-c3ccccc3)c(Cl)c2)c2cn[nH]c2c1 [Example 10, 3-(((2-chloro-[1,1′-biphenyl]-4-yl)methyl)amino)-N-(3-((6-cyano-1H-indazol-4-yl)amino)propyl)propanamide] |
| 0.44 | 18.2 | 93.6 | O=C(CCNCc1ccc(-c2ccccc2)c(Cl)c1)NCCCNc1cc(-c2cn[nH]n2)cc2[nH]ncc12 [Example 25, N-(3-((6-(2H-1,2,3-triazol-4-yl)-1H-indazol-4-yl)amino)propyl)-3-(((2-chloro-[1,1′-biphenyl]-4-yl)methyl)amino)propanamid] |
| 176 | 1000 | 15600 | O=C(CCNCCCNCc1ccc(OC(F)(F)F)c(Cl)c1)Nc1cc(-n2cnnc2)cc2[nH]ncc12 [Example 66, N-(6-(4H-1,2,4-triazol-4-yl)-1H-indazol-4-yl)-3-((3-((3-chloro-4-(trifluoromethoxy)benzyl)amino)propyl)amino)propanamide] |
| 223 | 48600 | > 50000 | FC(F)(F)c1ccc2[nH]c(CNCCCCOCCOc3cc(-c4ccnnc4)cc4[nH]nnc34)cc2c1 [Example 101, 4-(2-((6-(pyridazin-4-yl)-1H-benzo[d][1,2,3]triazol-4-yl)oxy)ethoxy)-N-((5-(trifluoromethyl)-1H-indol-2-yl)methyl)butan-1-amine] |
| 44.9 | 209 | 3670 | Cc1cc(CC#N)cc(CNCCCCOC2CN(c3cc(-c4cnoc4)cc4[nH]ncc34)C2)c1 [Example 121, 2-(3-(((4-((1-(6-(isoxazol-4-yl)-1H-indazol-4-yl)azetidin-3-yl)oxy)butyl)amino)methyl)-5-methylphenyl)acetonitrile] |
| 19.1 | 221 | 1110 | N#Cc1cc(NCCCNC(=O)CCNCc2ccc(OC(F)(F)F)c(Cl)c2)c2cn[nH]c2c1 [Example 160, 3-((3-chloro-4-(trifluoromethoxy)benzyl)amino)-N-(3-((6-cyano-1H-indazol-4-yl)amino)propyl)propanamide] |
| 2.65 | 237 | 13400 | N#Cc1cc(CNCCC(=O)NCCCNc2cc(-n3cnnc3)cc3[nH]ncc23)ccc1OC(F)(F)F [Example 46, N-(3-((6-(4H-1,2,4-triazol-4-yl)-1H-indazol-4-yl)amino)propyl)-3-((3-cyano-4-(trifluoromethoxy)benzyl)amino)propanamide] |
